Measurements published in patent publication US9387184B2, “Pharmaceutical compositions for combination therapy” (Saniona A/S, priority 2012, dated 2016).

Legend:
[1] = Real-time feeding monitoring (food intake) in telemetrized rats; type: in vivo, rat; conditions: for effect on food intake per se: antihypertensive drug alone, p.o.; for effect on tesofensine-induced reduction in food intake: co-administered with tesofensine 3.0 mg/kg p.o., Metoprolol 10, 20 mg/kg, Telmisartan 1.0, 3.0 mg/kg p.o.
Method: (§1) Five months-old male normotensive Sprague-Dawley rats (508±18 g, Harlan, Horst, The Netherlands) were housed in solid bottomed Plexiglas cages with dust free wood chippings and a cardboard tube. Holding rooms were maintained under a 12-h light/dark cycle (lights off: 1500 h). Ambient temperature was 18.0 to 22.0° C. and relative air humidity of 40 to 60%. A dim red light was the sole source of illumination during the dark period. The rats had ad libitum standard chow (Altromin 1324, 10% kcal from fat, energy density 2.85 kcal per g, Altromin GmbH, Lage, Germany) and water. All experiments were approved (permission no. 2007/561-1343) and conducted in accordance with the guidelines of the Animal Experimentation Inspectorate, Ministry of Justice, Denmark.
(§2) Upon 2-3 weeks of post-surgery recovery, the rats were transferred to fully automated food intake monitoring cages (HM-2, MBRose, Faaborg, Denmark) modified to simultaneously determine individualized food intake (by microchip, see below) and cardiovascular condition (by telemetry). For combined telemetry analysis, two receivers (RPC-1, Data Sciences International, St. Paul, Minn.) were placed in the bottom of each HM-2 food intake monitoring cages thereby fully covering the cage surface area. The modified HM-2 food intake monitoring cages were placed in a modified ventilated cabinet with lightproof doors and a light kit for cabinet-based control of light-dark cycle (Scanbur BK, Karslunde, Denmark) being similar to that in the holding rooms. Cabinet temperature was 24.0 to 26.0° C. and relative air humidity of 40 to 60%. The animals were habituated to the HM-2 food intake monitoring system for at least 5 days prior to initiation of drug treatment procedures. Prior to re-housing to the fully automated food intake monitoring cages, the rats were subcutaneuosly injected with a microchip (#402575, eVet, Haderslev, Denmark) to simultaneously identify, and in real-time mode to track feeding behavior of each individual animal throughout the entire experiment. Locomotor activity was detected by an integrated infrared sensor placed above the cage. Standard HM-2 control unit settings are reported previously in further details^7. All drugs and saline vehicle were administered 30 min before dark onset. All rats received the same treatment in each individual experiment, i.e. a parallel study design was used, and a wash-out period of at least 5 days was used between treatments to assure re-establishment of baseline levels of food intake, locomotor activity, heart rate and blood pressure. The home cage was removed from the HM-2 food intake monitoring system during the drug administration procedure and returned immediately after completion of the drug administration, whereupon automated monitoring of feeding behavior and cardiovascular parameters of each individual animal was resumed. Body weight was measured daily. Body weight and microstructural food intake analysis was performed using a data reporting software (HMView, MBRose, Faaborg, Denmark).
(§3) Data were fed into a standard graphic and statistical analysis program (GraphPad Prism v.4.03). Body weight data were calculated as absolute values (g) or daily body weight gain relative (control level=100%) to the first day of drug administration (day 0). Body weight gain and food intake were expressed as means±S.E.M of n individual animals. After acquisition of telemetry data, 12-hour means were calculated using Microsoft Excel 2007. Finally, statistical analysis and data presentation (mean±S.E.M.) was performed using GraphPad Prism v.4.03). All data were evaluated using a repeated-measure one-way ANOVA with Tukey's post-hoc test was applied to perform statistical comparisons between treatment groups. A p-value less than 0.05 was considered statistically significant.
(§4) All drugs were administered p.o. (1.0 ml/kg). […]

[2] = long-term treatment, corrected for placebo and diet effects; cited from earlier work
[3] = Body weight in telemetrized rats; type: in vivo, rat; conditions: for effect on body weight regulation per se: antihypertensive drug alone, p.o.; for effect on tesofensine-induced reduction in body weight: co-administered with tesofensine 3.0 mg/kg p.o., Metoprolol 10, 20 mg/kg, Telmisartan 1.0, 3.0 mg/kg p.o.
Method: as §1, §2, §3, §4

[4] = Locomotor activity in telemetrized rats (infrared sensor); type: in vivo, rat
Method: as §1
Upon 2-3 weeks of post-surgery recovery, the rats were transferred to fully automated food intake monitoring cages (HM-2, MBRose, Faaborg, Denmark) modified to simultaneously determine individualized food intake (by microchip, see below) and cardiovascular condition (by telemetry). For combined telemetry analysis, two receivers (RPC-1, Data Sciences International, St. Paul, Minn.) were placed in the bottom of each HM-2 food intake monitoring cages thereby fully covering the cage surface area. […] Locomotor activity was detected by an integrated infrared sensor placed above the cage. […] Body weight was measured daily. […]
as §3, with “Finally, statistical analysis and data presentation (mean±S.E.M.) was performed using GraphPad Prism v.4.03).” left out, “A p-value less than 0.05 was considered statistically significant.” left out

[5] = Telemetric monitoring of heart rate and blood pressure in rats; type: in vivo, rat
Method: as §1
The rats were implanted at Harlan laboratories, Horst, the Netherlands, with Data Science International (DSI, St. Paul, USA) Physiotel PA-C40 transmitters according to the manufactures description. In brief, the rats were anaesthetized with isoflurane, ventilated, and a laparotomy was performed under aseptic conditions. A pressure catheter was inserted and sealed in place with Vetbond (3M, St. Paul, USA) into the isolated abdominal aorta. Finally, the transmitter was placed on top of the intestines, in parallel to the long axis of the body, and secured to the abdominal wall, where after the abdominal muscle layer and skin was closed with solvable sutures. The animals were allowed full post-surgical recovery before shipment. Blood pressure (systolic and diastolic arterial blood pressure) and heart rate (pulse rate) data were collected at a sampling rate of 500 Hz using Dataquest A.R.T (v.4.3) and Ponemah software (v.5.0) (DSI, St. Paul, USA) using factory-provided calibration values for the individual transmitters and an Ambient Pressure Reference Monitor (DSI, St. Paul, USA) to ensure accurate blood pressure measurements. Data were collected continuously for 48 h and binned in 5 s intervals.
as §2, with “The home cage was removed from the HM-2 food intake monitoring system during the drug administration procedure and returned immediately after completion of the drug administration, whereupon automated monitoring of feeding behavior and cardiovascular parameters of each individual animal was resumed. Body weight was measured daily. Body weight and microstructural food intake analysis was performed using a data reporting software (HMView, MBRose, Faaborg, Denmark).” left out

[6] = 3.0-5.0 mg/kg p.o., acute, evident for at least 48 hours, compared to vehicle-treated rats
[7] = tesofensine 1.0-5.0 mg/kg p.o., acute

CCOC[C@@H]1[C@@H](c2ccc(Cl)c(Cl)c2)C[C@@H]2CC[C@H]1N2C [Tesofensine]
duration of hypophagic effect ([1]; 5.0 mg/kg p.o., acute): ≤ 48 h
duration of hypophagic effect ([1]; 3.0-5.0 mg/kg p.o., acute): ≤ 24 h
duration of hypophagic effect ([1]; all doses (1.0-5.0 mg/kg p.o.), acute): up to 12 hours
food intake relative to the control level ([1]; tesofensine 5.0 mg/kg p.o., acute, 12 hours post-dosing, p<0.001): approximately 50%
weight loss in obese patients [2]: about 10%
net body weight loss (absolute) [3, 6]: 8 to 11 g
net body weight loss (relative) [3, 6]: 1.0-1.5%
locomotor activity ([4]; 3.0-5.0 mg/kg p.o., acute): significant, albeit short-lasting, increase in locomotor activity
duration of induced locomotor activity ([4]; first dark phase after acute dosing): up to 12 hours
systolic blood pressure ([5]; tesofensine 3.0 mg/kg and 5.0 mg/kg p.o., up to 48 hours after administration): dose-dependent modest increase in systolic blood pressure
heart rate ([5]; tesofensine 3.0 mg/kg p.o., Telmisartan combination study): significantly increase heart rate
duration of heart rate increase [5, 7]: up to 48 hours
heart rate [5, 7]: dose-dependent increase in heart rate at all doses tested
diastolic blood pressure ([5]; tesofensine 1.0-5.0 mg/kg p.o., highest dose not significant (p=0.204)): trend towards a dose-dependent rise in diastolic blood pressure

CCCc1nc2c(C)cc(-c3nc4ccccc4n3C)cc2n1Cc1ccc(-c2ccccc2C(=O)O)cc1 [Telmisartan]
effect on food intake per se [1]: neither antihypertensive drug exhibited an effect
effect on tesofensine-induced reduction in food intake [1]: did also not affect tesofensine-induced reductions in food intake
effect on body weight regulation per se [3]: neither antihypertensive drug exhibited an effect
effect on tesofensine-induced reduction in body weight [3]: did also not affect
effect on tesofensine-induced rise in heart rate ([5]; Telmisartan 1.0 and 3.0 co-treatment with tesofensine 3.0 mg/kg p.o.): did not revert the rise in heart rate
heart rate and blood pressure, drug alone ([5]; Telmisartan alone 3.0 mg/kg p.o.): no effect on heart rate and blood pressure
effect on Tesofensine-induced increases in diastolic and systolic blood pressure ([5]; Telmisartan co-treatment with tesofensine 3.0 mg/kg p.o., p>0.05 compared to Tesofensine alone): did not lead to a significant prevention of Tesofensine-induced hypertension
heart rate compared to tesofensine alone ([5]; highest dose of Telmisartan (3.0 mg/kg) combined with tesofensine 3.0 mg/kg p.o.): significant increase in heart rate as compared to tesofensine administration alone

COCCc1ccc(OCC(O)CNC(C)C)cc1 (centres unmarked) [Metoprolol, 1-(Isopropylamino)-3-[4-(2-methoxyethyl)-phenoxy]-propan-2-ol]
effect on food intake per se [1]: neither antihypertensive drug exhibited an effect
effect on tesofensine-induced reduction in food intake [1]: did also not affect tesofensine-induced reductions in food intake
effect on body weight regulation per se [3]: neither antihypertensive drug exhibited an effect
effect on tesofensine-induced reduction in body weight [3]: did also not affect
effect on tesofensine-induced locomotor activity ([4]; co-administered with tesofensine 3.0 mg/kg p.o., compared to tesofensine alone): completely prevented the locomotor activity inducing effect by tesofensine
effect on tesofensine-induced tachycardia ([5]; Metoprolol 10 mg/kg and 20 mg/kg co-treatment with tesofensine 3.0 mg/kg p.o.): fully reversed tesofensine-induced tachycardia
effect on tesofensine-evoked increase in diastolic pressure ([5]; Metoprolol 20 mg/kg co-treatment with tesofensine 3.0 mg/kg p.o., first light phase, 12-24 hours post-treatment): reversed by co-treatment with Metoprolol
effect on tesofensine-induced rise in systolic blood pressure ([5]; Metoprolol 20 mg/kg co-treatment with tesofensine 3.0 mg/kg p.o., for up to 24 hours): normalization of the systolic blood pressure
diastolic blood pressure, drug alone ([5]; Metoprolol 20 mg/kg p.o. alone, first 24 hours): did not produce any significant effects on diastolic blood pressure
duration of heart rate lowering effect ([5]; Metoprolol 10 and 20 mg/kg p.o., after administration): up to 24 hours
